Active and inactive are the calls of the source. The rule behind the calls is not given here. *1 amine or outer side, *2 acyl side, *3 side chain or, on linkers, in order; H or OH if unused. Where a SMILES comes first, the peptide text is derived from it. Bridges are numbered along the chain shown (N, C = ends). Roman numbers before positions name the chains, in order. [ ]: non-standard residue; d: D form. Actinocin(9to1) = Cc1c2oc3c(C)ccc(C(=O)[*:1])c3nc-2c(C(=O)[*:2])c(N)c1=O; NMeV = CN[C@H](C(=O)O)C(C)C; Sar = CNCC(=O)O
System: rodent carcinogenicity bioassays, tumor incidence
Experiment: CCRIS carcinogenicity studies
Procedure, shortened: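 Archive of carcinogenicity, mutagenicity, tumor promotion and tumor inhibition results drawn from journals, NCI reports and other sources, expert-reviewed; covers 1985-2011 and is no longer updated.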

`CCCCCCCCCCCCCC(=O)O[C@@H]1[C@@H](C)[C@@]2(O)[C@@H](C=C(CO)C[C@]3(O)C(=O)C(C)=C[C@@H]23)[C@@H]2C(C)(C)[C@]12OC(C)=O` was tested, and the carcinogen call (Species: MOUSE, Strain/Sex: BALB/MALE, FEMALE, Route: DERMAL, Dose: 0, 18 NMOL IN ACETONE 1/WK FOR 17 MO (STUDY DURATION: 24 MO), Tumor Site: Type of Lesion: SKIN: SQUAMOUS CELL PAPILLOMA) was “active; positive”, the carcinogen call (Species: MOUSE, Strain/Sex: HR-HR/MALE, FEMALE, Route: DERMAL, Dose: 0, 18 NMOL IN ACETONE 1/WK FOR 18 MO (STUDY DURATION: 24 MO)) was “inactive; negative” and the carcinogen call (Species: MOUSE, Strain/Sex: HR/HR/MALE, FEMALE, Route: DERMAL, Dose: 0, 20, 40, 100, 1000, 1200, 1394 NMOL TOTAL DOSE WITH RESPECTIVE ADMINISTRATIONS OF 20 NMOL ONCE, 2 NMOL TWICE, 20 NMOL, Dose: 0, 20, 40, 100, 1000, 1200, 1394 NMOL TOTAL DOSE WITH RESPECTIVE ADMINISTRATIONS OF 20 NMOL ONCE, 2 NMOL TWICE, 20 NMOL, Tumor Site: Type of Lesion: SKIN: TUMOR) was “active; positive”.

In the case of `Cc1c2oc3c(C)ccc(C(=O)N[C@@H]4C(=O)N[C@H](C(C)C)C(=O)N5CCC[C@H]5C(=O)N(C)CC(=O)N(C)[C@@H](C(C)C)C(=O)O[C@@H]4C)c3nc-2c(C(=O)N[C@@H]2C(=O)N[C@H](C(C)C)C(=O)N3CCC[C@H]3C(=O)N(C)CC(=O)N(C)[C@@H](C(C)C)C(=O)O[C@@H]2C)c(N)c1=O` (I: T[dV]P[Sar][NMeV] / II: T[dV]P[Sar][NMeV]; ester I:1-I:C, II:1-II:C; linker I:N-II:N via Actinocin(9to1)), the carcinogen call (Species: RAT, Route: INTRAPERITONEAL, Tumor Site: Type of Lesion: PERITONEAL CAVITY) is reported as “active; positive”.

With `CCN(CC)C(=S)SSC(=S)N(CC)CC` the carcinogen call (Species: MOUSE, Strain/Sex: B6C3F1/FEMALE, Route: ORAL, Dose: 0, 100, 500 PPM IN DIET, Dose: 0, 100, 500 PPM IN DIET) was “inactive; negative”, the carcinogen call (Species: MOUSE, Strain/Sex: B6C3F1/MALE, Route: ORAL, Dose: 0, 500, 2000 PPM IN DIET, Dose: 0, 500, 2000 PPM IN DIET) was “inactive; negative” and the carcinogen call (Species: RAT, Strain/Sex: F344/FEMALE, Route: ORAL, Dose: 0, 300, 600 PPM IN DIET, Dose: 0, 300, 600 PPM IN DIET) was “inactive; negative”. The carcinogen call (Species: RAT, Strain/Sex: F344/MALE, Route: ORAL, Dose: 0, 300, 600 PPM IN DIET, Dose: 0, 300, 600 PPM IN DIET) was “inactive; negative”.

`CC(C)(C)c1cc(O)ccc1O` was tested, and the carcinogen call (Species: MOUSE, Strain/Sex: B6C3F1/FEMALE, Route: ORAL, Dose: 0, 1250, 2500, 5000 PPM IN DIET FOR 105 WK (STUDY DURATION: 105 WK), Dose: 0, 1250, 2500, 5000 PPM IN DIET FOR 105 WK (STUDY DURATION: 105 WK)) was “inactive; negative”, the carcinogen call (Species: MOUSE, Strain/Sex: B6C3F1/MALE, Route: ORAL, Dose: 0, 1250, 2500, 5000 PPM IN DIET FOR 104 WK (STUDY DURATION: 104 WK), Dose: 0, 1250, 2500, 5000 PPM IN DIET FOR 104 WK (STUDY DURATION: 104 WK)) was “inactive; negative” and the carcinogen call (Species: RAT, Strain/Sex: F344/FEMALE, Route: ORAL, Dose: 0, 1250, 2500, 5000 PPM IN DIET FOR 129 WK ADMINISTERED TO RATS ALSO EXPOSED IN UTERO THROUGH MOTHERS THAT RECEIVED THE, Dose: 0, 1250, 2500, 5000 PPM IN DIET FOR 129 WK ADMINISTERED TO RATS ALSO EXPOSED IN UTERO THROUGH MOTHERS THAT RECEIVED THE) was “inactive; negative”. The carcinogen call (Species: RAT, Strain/Sex: F344/FEMALE, Route: ORAL, Dose: 0, 5000 PPM IN DIET FOR 128 WK, CONTROL AND DOSED GROUPS FED AD LIBITUM (STUDY DURATION: 128 WK)) was “inactive; negative”, the carcinogen call (Species: RAT, Strain/Sex: F344/FEMALE, Route: ORAL, Dose: 0, 5000 PPM IN DIET FOR 128 WK, CONTROL GROUP WAS WEIGHT-MATCHED TO DOSED GROUP (STUDY DURATION: 128 WK)) was “inactive; negative” and the carcinogen call (Species: RAT, Strain/Sex: F344/FEMALE, Route: ORAL, Dose: 0, 5000 PPM IN DIET FOR 130 WK, CONTROL GROUP DIET RESTRICTED TO LIMIT WEIGHTS TO 85% OF AD LIBITUM-FED GROUPS (STUDY DU) was “inactive; negative”. For the same compound, the carcinogen call (Species: RAT, Strain/Sex: F344/MALE, Route: ORAL, Dose: 0, 1250, 2500, 5000 PPM IN DIET FOR 123 WK ADMINISTERED TO RATS ALSO EXPOSED IN UTERO THROUGH MOTHERS THAT RECEIVED THE, Dose: 0, 1250, 2500, 5000 PPM IN DIET FOR 123 WK ADMINISTERED TO RATS ALSO EXPOSED IN UTERO THROUGH MOTHERS THAT RECEIVED THE) was “inactive; negative”, the carcinogen call (Species: RAT, Strain/Sex: F344/MALE, Route: ORAL, Dose: 0, 5000 PPM IN DIET FOR 102 WK, CONTROL AND DOSED GROUPS FED AD LIBITUM (STUDY DURATION; 122 WK), Dose: 0, 5000 PPM IN DIET FOR 102 WK, CONTROL AND DOSED GROUPS FED AD LIBITUM (STUDY DURATION; 122 WK)) was “inactive; negative” and the carcinogen call (Species: RAT, Strain/Sex: F344/MALE, Route: ORAL, Dose: 0, 5000 PPM IN DIET FOR 122 WK, CONTROL GROUP WAS WEIGHT-MATCHED TO DOSED GROUP (STUDY DURATION: 122 WK)) was “inactive; negative”. For the same compound, the carcinogen call (Species: RAT, Strain/Sex: F344/MALE, Route: ORAL, Dose: 0, 5000 PPM IN DIET FOR 130 WK, CONTROL GROUP DIET RESTRICTED TO LIMIT WEIGHTS TO 85% OF AD LIBITUM-FED GROUPS (STUDY DU) was “inactive; negative”.

In the case of `Brc1c2ccccc2cc2c1ccc1ccccc12`, the carcinogen call (Species: MOUSE, Strain/Sex: B6C3F1/MALE, Route: INTRAPERITONEAL, Dose: 0, 1600 NMOL (TOTAL DOSE) ADMINISTERED IN DOSES OF 1/7 WITHIN 24 HR OF BIRTH, 2/7 AT 8 DAYS OF AGE AND 4/7 AT 15 DAYS OF, Tumor Site: Type of Lesion: LIVER: ADENOMA, CARCINOMA) is reported as “active; positive”.

`CCOc1ccc(NC(C)=O)cc1[N+](=O)[O-]` was tested, and the carcinogen call (Species: MOUSE, Strain/Sex: B6C3F1/FEMALE, Route: ORAL, Dose: 0, 0.73, 1.46% OF DIET, TWA, Dose: 0, 0.73, 1.46% OF DIET, TWA) was “inactive; negative”, the carcinogen call (Species: MOUSE, Strain/Sex: B6C3F1/MALE, Route: ORAL, Dose: 0, 0.73, 1.46% OF DIET, TWA, Dose: 0, 0.73, 1.46% OF DIET, TWA, Tumor Site: Type of Lesion: LIVER: HEPATOCELLULAR CARCINOMA OR ADENOMA) was “active; positive” and the carcinogen call (Species: RAT, Strain/Sex: F344/FEMALE, Route: ORAL, Dose: 0, 0.18, 0.36% OF DIET, TWA, Dose: 0, 0.18, 0.36% OF DIET, TWA) was “inactive; negative”. For the same compound, the carcinogen call (Species: RAT, Strain/Sex: F344/MALE, Route: ORAL, Dose: 0, 0.18, 0.36% OF DIET, TWA, Dose: 0, 0.18, 0.36% OF DIET, TWA) was “inactive; negative”.

In the case of `CC1=C(C(=O)Nc2ccccc2)SCCO1`, the carcinogen call (Species: Mouse, Strain/Sex: Charles River/Female (50 per group in experimental animals; 75 controls), Route: Oral, Dose: 0, 50, 2,500, 5,000 ppm in diet for 19 mo, Dose: 0, 50, 2,500, 5,000 ppm in diet for 19 mo) is reported as “inactive; negative (purity >99%; study details not given in source)”, the carcinogen call (Species: Mouse, Strain/Sex: Charles River/Male (50 per group in experimental animals; 75 controls), Route: Oral, Dose: 0, 50, 2,500, 5,000 ppm in diet for 19 mo, Dose: 0, 50, 2,500, 5,000 ppm in diet for 19 mo, Tumor Site: Type of Lesion: LUNG, Pulmonary adenomas and alveolar-bronchiolar adenomas (34% in high dose group vs 17% in controls; significant), Tumor Site: Type of Lesion: LUNG, Pulmonary adenomas and alveolar-bronchiolar adenomas (34% in high dose group vs 17% in controls; significant)) is reported as “active; positive (purity >99%; study details not given in source)” and the carcinogen call (Species: Rat, Strain/Sex: Crl:CD SD/Female (50 per group), Route: Oral, Dose: 0, 20, 300, 600 ppm in diet for 102 wk, Dose: 0, 20, 300, 600 ppm in diet for 102 wk) is reported as “inactive; negative (purity 97.7%; study details not given in source)”. The carcinogen call (Species: Rat, Strain/Sex: Crl:CD SD/Male (50 per group), Route: Oral, Dose: 0, 20, 200, 400 ppm in diet for 102 wk, Dose: 0, 20, 200, 400 ppm in diet for 102 wk) was “inactive; negative (purity 97.7%; study details not given in source)”.

In the case of `CCN(CC)CCNc1ccc(CO)c2sc3ccccc3c(=O)c12`, the carcinogen call (Species: MOUSE, Route: INTRAMUSCULAR, Tumor Site: Type of Lesion: LIVER) is reported as “active; positive”.

For `c1ccc2c(c1)ccc1ccccc12`, the carcinogen call (Species: RAT, Strain/Sex: OSBORNE-MENDEL/FEMALE, Route: INTRAPULMONARY IMPLANT, Dose: 0, 1, 3, 10 MG IN BEESWAX AND TRIOCTANOIN IMPLANTED IN LUNG (STUDY DURATION: 141 WK), Dose: 0, 1, 3, 10 MG IN BEESWAX AND TRIOCTANOIN IMPLANTED IN LUNG (STUDY DURATION: 141 WK)) was “inactive; negative”.

With `C#C[C@]1(O)CC[C@H]2[C@@H]3CCC4=CC(=O)CC[C@@H]4[C@H]3CC[C@@]21C` the carcinogen call (Species: MOUSE, Route: ORAL, Tumor Site: Type of Lesion: LIVER, LUNG) was “active; positive”.
